Earlier results on 3 compounds are cited in patent US20060234982A1 (priority 2003, published 2006).

One data set has as its system HIV-1. The settings on record: in vitro, with recombinant soluble CD4, castanospermine or recombinant interferon-α.
The next data set has as its system HBV. The following applies: variety of cell types.
Experiment in data set [1]: not given
The source holds these as a separate data set.

[2] abbreviates: relative to tenofovir, HIV in culture.

Consider `Cc1cn([C@H]2C[C@H](N=[N+]=[N-])[C@@H](CO)O2)c(=O)[nH]c1=O` [AZT, 3′-azido, 3′-deoxythymidine], for which the “antiviral activity in combination” value in the data set on HIV-1 is given as “synergistic antiviral activity”.
On to `CC(C)OC(=O)[C@H](C)N[P@](=O)(CO[C@H](C)Cn1cnc2c(N)ncnc21)Oc1ccccc1` [GS-7340, 9-[(R)-2-[[(S)-[[(S)-1-(isopropoxycarbonyl)ethyl]amino]phenoxyphosphinyl]methoxy]propyl]adenine], for which, in the data set on HIV (setting [2]), the “fold more effective than tenofovir against HIV in culture” value is on record as 100 fold and the “times more effective than tenofovir against HIV in culture” value is recorded as 1000 times. For the same compound, in the data set on HIV (relative to the diastereomer with R-configuration at P), the “S-configuration (at phosphorus) diastereomer more effective than R-configuration diastereomer” value is reported as 10 fold. The “effectiveness against HIV in vitro” value with HIV (variety of cell types) is “effective”. The “effectiveness against HBV in vitro” value in the data set with HBV was “effective”. Further, under “dogs and rhesus monkeys”, the “hydrolysis in lymphatic tissue” value is given as “selectively hydrolyzed inside lymphatic tissue” and the plasma stability result is recorded as “stable in plasma”. Besides, for the setting “dogs and rhesus monkeys, oral”, the oral bioavailability is on record as 20%. For the setting “in vivo and in vitro characterization, selective intracellular activation”, the tissue distribution entry is recorded as “preferential distribution in lymphatic tissues”.
On to `C[C@H](Cn1cnc2c(N)ncnc21)OCP(=O)(O)O` [Tenofovir, (R)-9-(2-phosphonylmethoxypropyl)adenine], for which the pKa (as a rule, the pH at which an ionisable group is half protonated) in data set [1] is recorded as 3.8.
